The values below come from the CATMoS acute toxicity set (Mansouri et al. 2021).

The series can be described thus: GHS categories as the set defines them, by LD50: 1 up to 5, 2 up to 50, 3 up to 300, 4 up to 2000, 5 above 2000 mg/kg. To be noted: rat; in vivo; po. The source says: […]The data set underlying the modeling effort for this project was initially compiled by NICEATM and U.S. EPA’s CCTE. Briefly, LD50 data were collected from rat acute oral systemic toxicity tests, including limit tests, ranges/confidence intervals, and discrete LD50 values. The full data set included 21,200 LD50 entries for 15,688 substances. […] Data were reviewed to ensure that LD50 values with obvious errors in the extracted data such as unit conversion errors (e.g., comma and decimal separator misplacements) were either fixed or removed. After this review, 16,209 LD50 values remained. Many of the chemicals represented had multiple LD50 entries, requiring that a single representative value per Chemical Abstracts Service Registry Number (CASRN) identifier be defined to facilitate modeling efforts. Based on ATWG feedback and to define the representative LD50 as a protective value while accounting for the distribution across multiple LD50s, the median of the lowest quartile was computed using only discrete LD50 values (omitting limit test data and range and confidence interval data). A detailed summary of the data compilation is available online on the NICEATM webpage dedicated to the collaborative modeling project (NTP 2020).
[…][…] For categorical designations, limit test and range/confidence interval LD50 data were integrated wherever possible. As such, the number of chemicals with end point values/calls varies across the modeling end points (Table 3) based on whether chemicals had representative LD50 values and/or other data. If a chemical had both, the representative value was used to determine categorical calls rather than limit test data. Some data were useable only for certain end points and categories depending on the thresholds. For example, ranges that spanned multiple hazard categories were considered only for the binary (very toxic/nontoxic) end points and omitted from rendering a determination for hazard category assignment.
[…]The final data set comprising 11,992 chemicals was split into training and evaluation sets […], respectively. This process was performed semirandomly by ordering chemicals based on the five end points (categorical and continuous LD50 values) and partitioning every fourth record into the evaluation set accordingly. This approach was taken to ensure an equivalent distribution of the LD50 values and the different hazard categories between the training and the evaluation sets without supervised sampling of the chemicals based on structures (Figure 1A). The sources of the chemical structures were also kept equivalent between the two sets, with chemical structures obtained from DSSTox, being the highest quality, representing over 75% of each set (Figure 1B).

*1 amine or outer side, *2 acyl side, *3 side chain or, on linkers, in order; H or OH if unused. Where a SMILES comes first, the peptide text is derived from it. Bridges are numbered along the chain shown (N, C = ends). [ ]: non-standard residue; d: D form. The star is where a group is joined. X5 = O=C(NC(=O)[*:2])C(N[*:1])c1cc(Cl)c(O)c(Cl)c1; X3 = NCCCCN(C(=O)C(N[*:1])c1ccc(O)cc1)C(=O)[*:2]; X4 = NC1=NC(CC(N[*:1])C(=O)[*:2])CN1; Hpg = N[CH](C(=O)O)c1ccc(O)cc1; X2 = CCC(C)CCCC/C=C/C=C/C(=O)*; Cit = NC(=O)NCCC[CH](N)C(=O)O

Compound `CCCCCCCCCCCCCCCc1cccc(OC(=O)c2cc(Cl)ccc2OC(N)=O)c1` had a GHS category of 5.

In turn, `CN1C(=O)COc2cc(C(=O)c3ccc(Cl)cc3)ccc21` showed a GHS category of 5. Consider `CNc1cc(OC)c(C(=O)N[C@H]2CCN(Cc3ccccc3)[C@H]2C)cc1Cl`, for which the GHS category came to 4. The value for `CC(Oc1cccc(Cl)c1)C(=O)O` (stereo not drawn) was 4; that for `c1ccc(OCCOc2ccccc2)cc1` was 5. Compound `CCOC[C@H]1CO[C@@](Cn2cncn2)(c2cc3cc(Cl)cc(Cl)c3o2)O1` gave a GHS category of 4.

As to `COc1cc(S(=O)(=O)O)c(C)cc1NC(=O)CC(C)=O`, the GHS category came to 5.

As to `COC(=O)C1=C(C)NC(COC(N)=O)=C(C(=O)OC(C)C)C1c1cccc(Cl)c1Cl` (stereo not drawn), the GHS category is on record as 5. For `COc1cc2c(cc1OC)-c1c(C)c3ccc(OC)c(OC)c3c[n+]1CC2`, the GHS category stood at 4. As for `COC(=O)C1=C(C)NC(C)=C(C(=O)O)C1c1cc([N+](=O)[O-])ccc1F` (stereo not drawn), the figure is 5; as for `C/C=C(\C)C(=O)OC/C=C(\C)CCC=C(C)C`, 5; as for `Cc1cccc(OC(=O)c2ccccc2OC(N)=O)c1`, 5. As for `CCC(C)CCCC/C=C/C=C/C(=O)NC(CC(=O)O)C(=O)NC1C(=O)NC(c2ccc(O)cc2)C(=O)N(CCCCN)C(=O)NC(C(C)O)C(=O)NC(c2ccc(O)cc2)C(=O)NC(c2ccc(O)cc2)C(=O)NC(C(C)O)C(=O)NC(CCCNC(N)=O)C(=O)NC(CC2CNC(N)=N2)C(=O)NC(c2ccc(O)cc2)C(=O)NC(CO)C(=O)NC(c2cc(Cl)c(O)c(Cl)c2)C(=O)NC(=O)NC(CC2CNC(N)=N2)C(=O)NC(C)C(=O)NC(c2ccc(O)cc2)C(=O)OC1C` (stereo not drawn) (X2-DT[X3]T[Hpg][Hpg]T[Cit][X4][Hpg]S[X5][X4]A[Hpg]; ester 2-C; configuration not given here), the GHS category is 5.

On to `FC(F)(F)c1cccc(-n2nc(OCCN3CCCCCC3)c3cccnc32)c1`, for which the GHS category was 4. For `C[C@@H]1CO[C@@](Cn2cncn2)(c2cc3cc(Cl)ccc3o2)O1`, the GHS category came to 4.

For `CCOC(=O)C(=O)Nc1cc(SCCOCCOC)ncn1`, the GHS category turned out to be 4.

The compound `CCCC/C=C/C=C\C=O` gave a GHS category of 5. `CC1(C)COC(Cn2cncn2)(c2cc3cc(Cl)cc(Cl)c3o2)OC1` gave a GHS category of 4. The compound `O=CC=Cc1ccco1` returned a GHS category of 4. Consider `c1ccc2sc(SN3CCOCC3)nc2c1`, for which the GHS category was 5. `O=S(=O)(O)CCO` yielded a GHS category of 5. `C[C@@]12CC[C@@H]3[C@H](CC=C4C[C@H](OS(=O)(=O)O)CC[C@]43C)[C@H]1CCC2=O` (racemic) displayed a GHS category of 5.

The compound `CCCN(CCC)C(=O)C(CCC(=O)OCCOCCOC(=O)Cc1c(C)n(C(=O)c2ccc(Cl)cc2)c2ccc(OC)cc12)NC(=O)c1ccccc1` (stereo not drawn) gave a GHS category of 4. In turn, `CC(C)OC(=O)N[C@H](C(=O)N[C@H](C)c1nc2ccc(F)cc2s1)C(C)C` came in with a GHS category of 5. In the case of `CCCCCCCCCCCCCCCCCC(=O)OCCOCCO`, the GHS category turned out to be 5. The compound `Oc1c(I)cc(Cl)c2cccnc12` returned a GHS category of 5. As to `CCCNC(=O)C(Cc1ccc(OCCN(CC)CC)cc1)NC(=O)c1ccccc1` (stereo not drawn), the GHS category was determined as 4. With `COC(=O)c1ccc(C(=O)Nc2cc(Cl)ccc2Cl)cc1N`, the GHS category is given as 4. Compound `COCC1COC(Cn2cncn2)(c2cc3cc(Cl)cc(Cl)c3o2)O1` (stereo not drawn) returned a GHS category of 4. The compound `CNC(=O)c1cc(C(O)CNC(C)(C)CCN2C(=O)OC(C)(C)c3ccccc32)ccc1O` (stereo not drawn) returned a GHS category of 4. The value for `CC(C)=NO` was 5; that for `Clc1cc(Cl)c2oc(C3(Cn4cncn4)OCCCO3)cc2c1` was 4; that for `COc1cc(NC(=O)C(/N=N/c2cc(OC)c(S(=O)(=O)Nc3ccccc3)cc2OC)C(C)=O)c(OC)cc1Cl` (stereo not drawn) was 5. `CC(SC(=O)c1cccs1)C(=O)NCC(=O)O` (stereo not drawn): the GHS category is 5. The value for `CC(C)=CCC[C@@](C)(O)[C@H]1CC=C(C)CC1` was 5; that for `CCC(c1cccc(O)c1)C(CC)c1cccc(O)c1` (stereo not drawn) was 5; that for `CC1=CC(=NNc2ccc(N)cc2)C=C(C)C1=O` was 5.

The compound `Nc1ccc(S(=O)(=O)O)cc1N` yielded a GHS category of 5.

Consider `Cc1cc(C(=O)NCCc2ccc(S(=O)(=O)NC(=O)NC3CCCCC3)cc2)no1`, for which the GHS category was 5. In the case of `C[Si](C)(C)C`, the GHS category is reported as 5.

As to `CCN(CCOC(C)=O)c1ccc(N=Nc2nc3ccc(Cl)cc3s2)cc1`, the GHS category was found to be 5. In turn, `N#Cc1c[nH]cc1-c1cccc2c1OC(F)(F)O2` came in with a GHS category of 5. The compound `Cc1nnc(SCCCSc2nnnn2C)o1` returned a GHS category of 4. As for `CN1CC(O)N(c2cc(C(C)(C)C)on2)C1=O` (stereo not drawn), the figure is 4; as for `CC(C)(CO)C(O)C(=O)NCCC(=O)NCCSSCCNC(=O)CCNC(=O)C(O)C(C)(C)CO` (stereo not drawn), 5; as for `COC(=O)c1ccc(C#N)cc1[N+](=O)[O-]`, 5. In turn, `CCC(Oc1ccc(C(C)(C)CC)cc1C(C)(C)CC)C(=O)O` (stereo not drawn) registered a GHS category of 5.

In turn, `O=C(Nc1cc(Cl)c(Cl)cc1Cl)c1cc(Cl)cc(-c2ccccc2)c1O` yielded a GHS category of 5.

`CC(=O)OCCOC(C)C` displayed a GHS category of 4. Compound `O=C(O)CN(CCN(CC(=O)O)CC(=O)O)CCN(CC(=O)O)CC(=O)O` (racemic) yielded a GHS category of 5. The compound `O=C(c1ccc(Cl)cc1)N1CCN=C1c1ccccc1` had a GHS category of 4. As for `O=c1[nH]c(CCl)nc2sc3c(c12)CCCC3`, the figure is 5. For `O=c1oc2ccc(Cl)cc2n1CO`, the GHS category is 4. `Cc1cc(C2(c3ccc(O)cc3)NC(=O)NC2=O)ccc1O` (stereo not drawn) came in with a GHS category of 5. The value for `C=CCCCCCCCCC=O` was 5. With `CC1CC(C)C(C)CC1C` (stereo not drawn), the GHS category is 5. The compound `CCOP(=O)(CN(CCO)CCO)OCC` registered a GHS category of 5. The compound `CC=CC(=O)OC/C=C(\C)CCC=C(C)C` registered a GHS category of 5. `Clc1ccc(N/C(=N/C2CCCCC2)c2ccccc2)cc1Cl` returned a GHS category of 5. The compound `Cc1ccc(NC(=O)N(C)C)cc1NC(=O)N(C)C` came in with a GHS category of 5.

Turning to `CN1C(C(=O)Nc2ccc(O)cn2)=C(O)c2sccc2S1(=O)=O`, the GHS category was determined as 2. Consider `CCCCOC(=O)CCC(C)=O`, for which the GHS category is reported as 5. For the compound `CC1(C)[C@H](C(=O)O[C@H](C#N)c2cccc(Oc3ccccc3)c2)[C@@H]1/C=C\C(=O)OC(C(F)(F)F)C(F)(F)F`, the GHS category was 5. In the case of `O=C(CCS)OCC(COC(=O)CCS)(COC(=O)CCS)COC(=O)CCS`, the GHS category is 4. As for `CCc1ccc(-n2nnnc2CSCCC(=O)N(CC)CC)cc1`, the figure is 4.

Compound `CC(=O)O[C@]1(C(C)=O)CC[C@H]2[C@@H]3C=C(C)C4=CC(=O)CC[C@@H]4[C@H]3CC[C@@]21C` yielded a GHS category of 5. In turn, `CCCCCC(=O)OC1(C(C)=O)CCC2C3CCC4=CC(=O)CCC4C3CCC21C` (stereo not drawn) came in with a GHS category of 5.

Compound `Cc1c(Cl)c(=O)oc2cc(OP(=O)(OCCCCCl)OCCCCCl)ccc12` gave a GHS category of 3.
